According to ChEMBL document CHEMBL3526100, “A refined cytochrome P540 IC₅₀ shift assay for reliably identifying CYP3A time-dependent inhibitors” (Drug Metab Dispos, 2011):

Legend:
Type in all cases: ADME
Cytochrome P450 3A4 [1] = molecular target: T1, Cytochrome P450 3A4 (Homo sapiens, UniProt P08684); experiment: Time dependent inhibition of CYP3A4 in human liver microsomes assessed as conversion of testosterone to 6beta-hydroxytestosterone at 0.01 to 100 uM preincubated for 60 mins followed by testosterone treatment measured after 10 mins by LC-MS/MS analysis in presence of NADPH
Cytochrome P450 3A4 [2] = molecular target: T1, Cytochrome P450 3A4; experiment: Time dependent inhibition of CYP3A4 in human liver microsomes assessed as conversion of testosterone to 6beta-hydroxytestosterone at 0.01 to 100 uM preincubated for 60 mins followed by testosterone treatment measured after 10 mins by LC-MS/MS analysis
Cytochrome P450 3A4 [3] = molecular target: T1, Cytochrome P450 3A4; experiment: Time dependent inhibition of CYP3A4 in human liver microsomes assessed as conversion of testosterone to 6beta-hydroxytestosterone at 0.01 to 100 uM preincubated for 60 mins followed by testosterone treatment measured after 10 mins by refined CYP450 IC50 shift assay in presence of NADPH
Cytochrome P450 3A4 [4] = molecular target: T1, Cytochrome P450 3A4; experiment: Time dependent inhibition of CYP3A4 in human liver microsomes assessed as conversion of testosterone to 6beta-hydroxytestosterone at 0.01 to 100 uM preincubated for 60 mins followed by testosterone treatment measured after 10 mins by refined CYP450 IC50 shift assay

Measured: inhibition (INH)

T1 sequence (P08684 whole entry): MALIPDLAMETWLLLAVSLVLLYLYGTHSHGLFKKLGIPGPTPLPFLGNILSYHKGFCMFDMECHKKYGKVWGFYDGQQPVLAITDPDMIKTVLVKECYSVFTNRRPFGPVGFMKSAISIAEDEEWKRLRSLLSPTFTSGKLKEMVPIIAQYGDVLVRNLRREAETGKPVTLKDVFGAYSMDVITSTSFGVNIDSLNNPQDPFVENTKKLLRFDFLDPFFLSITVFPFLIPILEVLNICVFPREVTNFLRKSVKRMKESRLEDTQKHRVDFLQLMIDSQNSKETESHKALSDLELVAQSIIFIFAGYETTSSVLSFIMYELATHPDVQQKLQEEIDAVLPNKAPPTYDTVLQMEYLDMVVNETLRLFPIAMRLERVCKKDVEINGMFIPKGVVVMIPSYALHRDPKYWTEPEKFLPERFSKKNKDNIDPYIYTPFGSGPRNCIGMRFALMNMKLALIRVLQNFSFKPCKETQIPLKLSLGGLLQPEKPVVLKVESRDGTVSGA

CC(C)=CCC/C(C)=C/COc1c2ccoc2cc2oc(=O)ccc12 [BERGAMOTTIN]
Active: all assays above

CC[C@H]1OC(=O)[C@H](C)[C@@H](O[C@H]2C[C@@](C)(OC)[C@@H](O)[C@H](C)O2)[C@H](C)[C@@H](O[C@@H]2O[C@H](C)C[C@H](N(C)C)[C@H]2O)[C@](C)(O)C[C@@H](C)C(=O)[C@H](C)[C@@H](O)[C@]1(C)O [ERYTHROMYCIN]
Active: all assays above

C/C(=C\COc1c2ccoc2cc2oc(=O)ccc12)CCC(O)C(C)(C)O (stereo not given) [DIHYDROXYBERGAMOTTIN]
Active: all assays above

O=C(c1ccc(OCCN2CCCCC2)cc1)c1c(-c2ccc(O)cc2)sc2cc(O)ccc12 [RALOXIFENE]
Active: all assays above

CNCCC(Oc1ccc(C(F)(F)F)cc1)c1ccccc1 (stereo not given) [FLUOXETINE]
Active: all assays above
